# Read-outs that look alike come from different tables or passages of the source.
# Legend:
# [1] = molecular target: human GABAA α1β3γ2 receptor (Homo sapiens (Human), UniProt P14867+P18507); assay: Radioligand binding assay for γ2-containing GABAA subtypes, [3H]Flumazenil competition (α1β3γ2); details: for γ2/γ1 Selectivity Ratio: Ki α1β3γ2 (nM)/Ki α2β2γ1 (nM); for LogSel: Log[Ki α1β3γ2 (nM)/Ki α2β2γ1 (nM)]
# [2] = molecular target: human GABAA α5β2γ1 receptor (Homo sapiens (Human), UniProt P31644+Q8N1C3); assay: Radioligand binding assay for γ1-containing GABAA subtypes, [3H]RO7239181 competition (α5β2γ1)
# [3] = molecular target: human GABAA α2β2γ1 receptor (Homo sapiens (Human), UniProt P47869+Q8N1C3); assay: Radioligand binding assay for γ1-containing GABAA subtypes, [3H]RO7239181 competition (α2β2γ1)
# [4] = molecular target: α2β2γ1 GABAA receptor subtype (Homo sapiens (Human), UniProt P47869+Q8N1C3); assay: Two-electrode voltage clamp electrophysiology in Xenopus oocytes expressing GABAA receptors (modulation of GABA EC20 current); format: cell-based; details: for Efficacy (GABA)%: % modulation of GABA EC20 = 100*(Fold increase-1), α2β2γ1 oocytes, compound at approx. 30-fold Ki; for Fold increase h-GABA-A α2β2γ1 oocyte @ 30-fold Ki: Xenopus oocytes expressing α2β2γ1, compound at approx. 30-fold its Ki α2β2γ1, GABA EC20 current
# Outline: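 Each concentration was tested on ≥3 oocytes held at −80 mV at room temperature, recorded 3-5 days post-injection. A control and a test response to EC20 GABA (1.5 min each) were superimposed and their point-by-point ratio taken. Peak ratio reported as % modulation of GABA EC20 = 100×(fold increase−1).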
# [5] = Ki h-GABAA α2β2γ1, [3H]RO7239181 competition binding, human GABAA α2β2γ1
# [6] = Ki h-GABAA α2β2γ1, displacement of [3H]RO7239181, membranes of HEK293F cells expressing human receptors, means of two determinations
SMILES,Ki [1],γ2/γ1 Selectivity Ratio [1],LogSel [1],Ki [2],"Ki [3, 5]","Ki [3, 6]",Efficacy (GABA)% [4],Fold increase h-GABA-A α2β2γ1 oocyte @ 30-fold Ki [4],γ2/γ1 Selectivity Ratio ([1]; Table 3),LogSel ([1]; Table 3),"Ki ([1]; read-out: Ki h-GABAA α1β3γ2, Table 3, reference compounds)","Ki ([3]; Ki h-GABAA α2β2γ1, Table 3, reference compounds)"
"C[C@H](O)CNC(=O)c1cn2c(n1)[C@H](C)N=C(c1ncccc1F)c1c-2ccc(C(F)(F)F)c1Cl [Example 155, (4S)-7-chloro-6-(3-fluoro-2-pyridyl)-4-methyl-N-[(2S)-2-hydroxypropyl]-8-(trifluoromethyl)-4H-imidazo[1,2-a][1,4]benzodiazepine-2-carboxamide]",8990 nM,182.4,2.26,10.8 nM,49.7 nM,49.3 nM,193%,2.93,–,–,–,–
"Cc1cnc2n1-c1ccc(C(F)(F)F)c(Cl)c1C(c1ncccc1F)=N[C@H]2C [Example 136, (4S)-7-chloro-6-(3-fluoro-2-pyridyl)-1,4-dimethyl-8-(trifluoromethyl)-4H-imidazo[1,2-a][1,4]benzodiazepine]",6130 nM,163.5,2.21,6.22 nM,37.5 nM,37.5 nM,116%,2.16,–,–,–,–
"C[C@@H]1N=C(c2c(F)cccc2F)c2c(ccc(Cl)c2Cl)-n2nc(C(=O)NC3COC3)nc21 [Example 55, (4S)-7,8-dichloro-6-(2,6-difluorophenyl)-4-methyl-N-(oxetan-3-yl)-4H-[1,2,4]triazolo[1,5-a][1,4]benzodiazepine-2-carboxamide]",555 nM,102.8,2.01,1.15 nM,5.4 nM,5.4 nM,58%,1.58,–,–,–,–
"CNS(=O)(=O)c1nc2n(n1)-c1ccc(Cl)c(Cl)c1C(c1c(F)cccc1F)=N[C@H]2C [Example 73, (4S)-7,8-dichloro-6-(2,6-difluorophenyl)-N,4-dimethyl-4H-[1,2,4]triazolo[1,5-a][1,4]benzodiazepine-2-sulfonamide]",2170 nM,44.1,1.64,2.97 nM,49.1 nM,49.1 nM,58%,1.58,–,–,–,–
"C[C@@H]1N=C(c2c(F)cccc2F)c2c(ccc(Cl)c2Cl)-n2nc(C(=O)NCC#N)nc21 [Example 56, (4S)-7,8-dichloro-N-(cyanomethyl)-6-(2,6-difluorophenyl)-4-methyl-4H-[1,2,4]triazolo[1,5-a][1,4]benzodiazepine-2-carboxamide]",432 nM,93.4,1.97,0.85 nM,4.6 nM,4.63 nM,72%,1.72,–,–,–,–
"C[C@@H]1N=C(c2ncccc2F)c2c(ccc(C(F)(F)F)c2Cl)-n2cc(C(=O)N[C@H]3C[C@H](O)C3)nc21 [Example 165, (4S)-7-chloro-6-(3-fluoro-2-pyridyl)-N-(trans-3-hydroxycyclobutyl)-4-methyl-8-(trifluoromethyl)-4H-imidazo[1,2-a][1,4]benzodiazepine-2-carboxamide]",7770 nM,179.6,2.25,9.55 nM,36.2 nM,43.3 nM,183%,2.83,–,–,–,–
"C[C@@H]1N=C(c2c(F)cccc2F)c2c(ccc(Cl)c2Cl)-n2nc(C(=O)N3CC4(CCCCO4)C3)nc21 [Example 96, [(4S)-7,8-dichloro-6-(2,6-difluorophenyl)-4-methyl-4H-[1,2,4]triazolo[1,5-a][1,4]benzodiazepin-2-yl]-(5-oxa-2-azaspiro[3.5]nonan-2-yl)methanone]",933 nM,145.4,2.16,2.65 nM,6.4 nM,6.42 nM,52%,1.52,–,–,–,–
"C[C@@H]1N=C(c2c(F)cccc2F)c2c(ccc(Cl)c2Cl)-n2nc(C(=O)N3CC4(CCCO4)C3)nc21 [Example 108, [(4S)-7,8-dichloro-6-(2,6-difluorophenyl)-4-methyl-4H-[1,2,4]triazolo[1,5-a][1,4]benzodiazepin-2-yl]-(5-oxa-2-azaspiro[3.4]octan-2-yl)methanone]",688 nM,175.8,2.24,2.59 nM,3.9 nM,3.92 nM,46%,1.46,–,–,–,–
"C[C@@H]1N=C(c2c(F)cccc2F)c2c(ccc(Cl)c2Cl)-n2nc(C(=O)N3CC(OC(F)F)C3)nc21 [Example 31, [(4S)-7,8-dichloro-6-(2,6-difluorophenyl)-4-methyl-4H-[1,2,4]triazolo[1,5-a][1,4]benzodiazepin-2-yl]-[3-(difluoromethoxy)azetidin-1-yl]methanone]",565 nM,33.2,1.52,1.33 nM,17 nM,17 nM,66%,1.66,–,–,–,–
"[2H]C([2H])([2H])N(C(=O)c1nc2n(n1)-c1ccc(Cl)c(Cl)c1C(c1c(F)cccc1F)=N[C@H]2C)C([2H])([2H])[2H] [Example 19, (4S)-7,8-dichlor-6-(2,6-difluorophenyl)-4-methyl-N,N-bis(trideuteriomethyl)-4H-[1,2,4]triazolo[1,5-a][1,4]benzodiazepine-2-carboxamide]",2650 nM,81.5,1.91,1.98 nM,32.5 nM,32.5 nM,97%,1.97,81.5,1.91,2650 nM,32.5 nM
"[2H]C([2H])([2H])NC(=O)c1nc2n(n1)-c1ccc(Cl)c(Cl)c1C(c1c(F)cccc1F)=N[C@H]2C [Example 20, (4S)-7,8-dichloro-6-(2,6-difluorophenyl)-4-methyl-N-(trideuteriomethyl)-4H-[1,2,4]triazolo[1,5-a][1,4]benzodiazepine-2-carboxamide]",593 nM,113.1,2.05,0.89 nM,5.2 nM,5.24 nM,78%,1.78,–,–,–,–
"Cc1nc2n(n1)-c1ccc(Cl)c(Cl)c1C(c1c(F)cccc1F)=NC2 [Example 32, 7,8-dichloro-6-(2,6-difluorophenyl)-2-methyl-4H-[1,2,4]triazolo[1,5-a][1,4]benzodiazepine]",163 nM,67.1,1.83,0.6 nM,2.4 nM,2.44 nM,26%,1.26,–,–,–,–
"C[C@@H]1N=C(c2c(F)cccc2F)c2c(ccc(Cl)c2Cl)-n2cc(C(=O)N3CCC3)nc21 [Example 70, azetidin-1-yl-[(4S)-7,8-dichloro-6-(2,6-difluorophenyl)-4-methyl-4H-imidazo[1,2-a][1,4]benzodiazepin-2-yl]methanone]",500 nM,26.7,1.43,1.08 nM,18.7 nM,18.7 nM,73%,1.73,–,–,–,–

# Source: US12365687B2 (Hoffmann-La Roche Inc., priority 2021, dated 2025)
